Patent US20070049564A1 (Wyeth, priority 2005, published 2007)
Converted amounts (≈) assume the structure as drawn. Where two headings read alike, the source gives them in different places.

Key:
E. coli = assay: Range of MIC for E. coli strains; conditions: Escherichia coli
Staph. = assay: Range of MIC for Staph. strains, including MRSA; conditions: Staphylococcus aureus, MRSA
[1] = 20 h, read-out: Range of MIC, E. coli (Mouse Serum)
[2] = read-out: Range of MIC, Staph (Mouse Serum)
[3] = read-out: Range of MIC, Staph (Water)
[4] = read-out: Range of MIC, E. coli (Water)

MIC (E. coli; [1]) | MIC (Staph.; [2]) | MIC (Staph.; [3]) | MIC (E. coli; [4]) | SMILES
2 µg/mL (≈ 2.45 µM) | 0.5 to 1 µg/mL (≈ 0.611 to 1.22 µM) | 2 to 4 µg/mL (≈ 2.45 to 4.89 µM) |  | Cc1c(C(=O)OCOC(=O)N(CC(=O)Nc2cc(N(C)C)c3c(c2O)C(=O)C2=C(O)[C@]4(O)C(=O)C(C(N)=O)=C(O)[C@@H](N(C)C)[C@@H]4C[C@@H]2C3)C(C)(C)C)oc2ccccc12 [Example 100, ({[(2-{[(5aR,6aS,7S,10aS)-9-(aminocarbonyl)-4,7-bis(dimethylamino)-1,8,10a,11-tetrahydroxy-10,12-dioxo-5,5a,6,6a,7,10,10a,12-octahydrotetracen-2-yl]amino}-2-oxoethyl)(tert-butyl)amino]carbonyl}oxy)methyl 3-methyl-1-benzofuran-2-carboxylate]
8 to 16 µg/mL (≈ 8.44 to 16.9 µM) | 16 to 64 µg/mL (≈ 16.9 to 67.5 µM) |  | > 64 µg/mL | CCCCCCCCCCCCOc1ccc(C(=O)OCOC(=O)N(CC(=O)Nc2cc(N(C)C)c3c(c2O)C(=O)C2=C(O)[C@]4(O)C(=O)C(C(N)=O)=C(O)[C@@H](N(C)C)[C@@H]4C[C@@H]2C3)C(C)(C)C)cc1 [Example 104]
0.5 to 1 µg/mL (≈ 0.63 to 1.26 µM) | 0.5 to 1 µg/mL (≈ 0.63 to 1.26 µM) | 4 to 8 µg/mL (≈ 5.04 to 10.1 µM) | > 64 µg/mL | COc1ccc(C(=O)OCOC(=O)N(CC(=O)Nc2cc(N(C)C)c3c(c2O)C(=O)C2=C(O)[C@]4(O)C(=O)C(C(N)=O)=C(O)[C@@H](N(C)C)[C@@H]4C[C@@H]2C3)C(C)(C)C)cc1 [Example 72, ({[(2-{[(5aR,6aS,7S,10aS)-9-(aminocarbonyl)-4,7-bis(dimethylamino)-1,8,10a,11-tetrahydroxy-10,12-dioxo-5,5a,6,6a,7,10,10a,12-octahydrotetracen-2-yl]amino}-2-oxoethyl)(tert-butyl)amino]carbonyl}oxy)methyl 4-methoxybenzoate]
8 to 16 µg/mL (≈ 9.22 to 18.4 µM) | 8 to 16 µg/mL (≈ 9.22 to 18.4 µM) |  | > 64 µg/mL | CN(C)c1cc(NC(=O)CN(C(=O)OCOC(=O)c2ccccc2CCc2ccccc2)C(C)(C)C)c(O)c2c1C[C@H]1C[C@H]3[C@H](N(C)C)C(O)=C(C(N)=O)C(=O)[C@@]3(O)C(O)=C1C2=O [Example 103, ({[(2-{[(5aR,6aS,7S,10aS)-9-(aminocarbonyl)-4,7-bis(dimethylamino)-1,8,10a,11-tetrahydroxy-10,12-dioxo-5,5a,6,6a,7,10,10a,12-octahydrotetracen-2-yl]amino}-2-oxoethyl)(tert-butyl)amino]carbonyl}oxy)methyl 2-(2-phenylethyl)benzoate]
32 to 64 µg/mL (≈ 38.1 to 76.2 µM) | 16 to 32 µg/mL (≈ 19 to 38.1 µM) | > 64 µg/mL | > 64 µg/mL | CN(C)c1cc(NC(=O)CN(C(=O)OCOC(=O)c2ccccc2-c2ccccc2)C(C)(C)C)c(O)c2c1C[C@H]1C[C@H]3[C@H](N(C)C)C(O)=C(C(N)=O)C(=O)[C@@]3(O)C(O)=C1C2=O [Example 94, ({[(2-{[(5aR,6aS,7S,10aS)-9-(aminocarbonyl)-4,7-bis(dimethylamino)-1,8,10a,11-tetrahydroxy-10,12-dioxo-5,5a,6,6a,7,10,10a,12-octahydrotetracen-2-yl]amino}-2-oxoethyl)(tert-butyl)amino]carbonyl}oxy)methyl 1,1′-biphenyl-2-carboxylate]
16 to 64 µg/mL (≈ 25.4 to 101 µM) | 8 µg/mL (≈ 12.7 µM) | 8 to 32 µg/mL (≈ 12.7 to 50.7 µM) | > 64 µg/mL | CN(C)c1cc(NC(=O)OCOC(=O)C(C)(C)C)c(O)c2c1C[C@H]1C[C@H]3[C@H](N(C)C)C(O)=C(C(N)=O)C(=O)[C@@]3(O)C(O)=C1C2=O [Example 78, [({[(5aR,6aS,7S,10aS)-9-(aminocarbonyl)-4,7-bis(dimethylamino)-1,8,10a,11-tetrahydroxy-10,12-dioxo-5,5a,6,6a,7,10,10a,12-octahydrotetracen-2-yl]amino}carbonyl)oxy]methyl pivalate]
1 to 2 µg/mL (≈ 1.55 to 3.1 µM) | 1 to 2 µg/mL (≈ 1.55 to 3.1 µM) | 4 to 16 µg/mL (≈ 6.2 to 24.8 µM) | > 64 µg/mL | CCC(CC)C(=O)OCOC(=O)Nc1cc(N(C)C)c2c(c1O)C(=O)C1=C(O)[C@]3(O)C(=O)C(C(N)=O)=C(O)[C@@H](N(C)C)[C@@H]3C[C@@H]1C2 [Example 85, [({[(5aR,6aS,7S,10aS)-9-(aminocarbonyl)-4,7-bis(dimethylamino)-1,8,10a,11-tetrahydroxy-10,12-dioxo-5,5a,6,6a,7,10,10a,12-octahydrotetracen-2-yl]amino}carbonyl)oxy]methyl 2-ethylbutanoate]
8 to 16 µg/mL (≈ 12.2 to 24.4 µM) | 2 to 8 µg/mL (≈ 3.05 to 12.2 µM) | 8 µg/mL (≈ 12.2 µM) | > 64 µg/mL | CN(C)c1cc(NC(=O)OCOC(=O)CC2CCCC2)c(O)c2c1C[C@H]1C[C@H]3[C@H](N(C)C)C(O)=C(C(N)=O)C(=O)[C@@]3(O)C(O)=C1C2=O [Example 86, [({[(5aR,6aS,7S,10aS)-9-(aminocarbonyl)-4,7-bis(dimethylamino)-1,8,10a,11-tetrahydroxy-10,12-dioxo-5,5a,6,6a,7,10,10a,12-octahydrotetracen-2-yl]amino}carbonyl)oxy]methyl cyclopentylacetate]
0.25 to 1 µg/mL (≈ 0.305 to 1.22 µM) | 0.5 to 8 µg/mL (≈ 0.61 to 9.76 µM) | 1 to 16 µg/mL (≈ 1.22 to 19.5 µM) | 1 to 4 µg/mL (≈ 1.22 to 4.88 µM) | CCCN(CC(=O)Nc1cc(N(C)C)c2c(c1O)C(=O)C1=C(O)[C@]3(O)C(=O)C(C(N)=O)=C(O)[C@@H](N(C)C)C3CC1C2)C(=O)OCc1oc(=O)oc1-c1ccc(OC)cc1 (stereo partly drawn) [Example 111, [5-(4-methoxyphenyl)-2-oxo-1,3-dioxol-4-yl]methyl 2-{[(7S,10aS)-9-(aminocarbonyl)-4,7-bis(dimethylamino)-1,8,10a,11-tetrahydroxy-10,12-dioxo-5,5a,6,6a,7,10,10a, 12-octahydrotetracen-2-yl]amino}-2-oxoethyl(propyl)carbamate]
2 to 4 µg/mL (≈ 2.45 to 4.91 µM) | 0.5 to 2 µg/mL (≈ 0.614 to 2.45 µM) | 0.5 to 4 µg/mL (≈ 0.614 to 4.91 µM) | > 64 µg/mL | CN(C)c1cc(NC(=O)CN(C(=O)OCOC(=O)c2ccc3ccccc3n2)C(C)(C)C)c(O)c2c1C[C@H]1C[C@H]3[C@H](N(C)C)C(O)=C(C(N)=O)C(=O)[C@@]3(O)C(O)=C1C2=O [Example 84, ({[(2-{[(5aR,6aS,7S,10aS)-9-(aminocarbonyl)-4,7-bis(dimethylamino)-1,8,10a,11-tetrahydroxy-10,12-dioxo-5,5a,6,6a,7,10,10a,12-octahydrotetracen-2-yl]amino}-2-oxoethyl)(tert-butyl)amino]carbonyl}oxy)methyl quinoline-2-carboxylate]
0.12 to 0.5 µg/mL (≈ 0.153 to 0.638 µM) | 0.12 to 0.5 µg/mL (≈ 0.153 to 0.638 µM) | 0.12 to 1 µg/mL (≈ 0.153 to 1.28 µM) | 16 µg/mL (≈ 20.4 µM) | CN(C)c1cc(NC(=O)CN(C(=O)OCOC(=O)CC2CCCCC2)C(C)(C)C)c(O)c2c1C[C@H]1C[C@H]3[C@H](N(C)C)C(O)=C(C(N)=O)C(=O)[C@@]3(O)C(O)=C1C2=O [Example 65, ({[(2-{[(5aR,6aS,7S,10aS)-9-(aminocarbonyl)-4,7-bis(dimethylamino)-1,8,10a,11-tetrahydroxy-10,12-dioxo-5,5a,6,6a,7,10,10a,12-octahydrotetracen-2-yl]amino}-2-oxoethyl)(tert-butyl)amino]carbonyl}oxy)methyl cyclohexylacetate]
4 to 8 µg/mL (≈ 4.68 to 9.37 µM) | 1 to 4 µg/mL (≈ 1.17 to 4.68 µM) | 4 to 8 µg/mL (≈ 4.68 to 9.37 µM) | > 64 µg/mL | COc1cc(C(=O)OCOC(=O)N(CC(=O)Nc2cc(N(C)C)c3c(c2O)C(=O)C2=C(O)[C@]4(O)C(=O)C(C(N)=O)=C(O)[C@@H](N(C)C)[C@@H]4C[C@@H]2C3)C(C)(C)C)cc(OC)c1OC [Example 97, ({[(2-{[(5aR,6aS,7S,10aS)-9-(aminocarbonyl)-4,7-bis(dimethylamino)-1,8,10a,11-tetrahydroxy-10,12-dioxo-5,5a,6,6a,7,10,10a,12-octahydrotetracen-2-yl]amino}-2-oxoethyl)(tert-butyl)amino]carbonyl}oxy)methyl 3,4,5-trimethoxybenzoate]
 | 8 to 16 µg/mL (≈ 12 to 23.9 µM) | 8 to 32 µg/mL (≈ 12 to 47.9 µM) | > 64 µg/mL | CN(C)c1cc(NC(=O)OCOC(=O)c2ccc(F)cc2)c(O)c2c1C[C@H]1C[C@H]3[C@H](N(C)C)C(O)=C(C(N)=O)C(=O)[C@@]3(O)C(O)=C1C2=O [Example 76, [({[(5aR,6aS,7S,10aS)-9-(aminocarbonyl)-4,7-bis(dimethylamino)-1,8,10a, 1-tetrahydroxy-10,12-dioxo-5,5a,6,6a,7,10,10a,12-octahydrotetracen-2-yl]amino}carbonyl)oxy]methyl 4-fluorobenzoate]
0.12 to 1 µg/mL (≈ 0.161 to 1.34 µM) | 0.12 to 0.25 µg/mL (≈ 0.161 to 0.336 µM) | 0.12 to 1 µg/mL (≈ 0.161 to 1.34 µM) | 2 to 8 µg/mL (≈ 2.69 to 10.8 µM) | CN(C)c1cc(NC(=O)CN(C(=O)OCOC(=O)C(C)(C)C)C(C)(C)C)c(O)c2c1C[C@H]1C[C@H]3[C@H](N(C)C)C(O)=C(C(N)=O)C(=O)[C@@]3(O)C(O)=C1C2=O [Example 68, ({[(2-{[(5aR,6aS,7S,10aS)-9-(aminocarbonyl)-4,7-bis(dimethylamino)-1,8,10a,11-tetrahydroxy-10,12-dioxo-5,5a,6,6a,7,10,10a,12-octahydrotetracen-2-yl]amino}-2-oxoethyl)(tert-butyl)amino]carbonyl}oxy)methyl pivalate]
4 to 8 µg/mL (≈ 5.22 to 10.4 µM) | 1 to 4 µg/mL (≈ 1.3 to 5.22 µM) | 2 to 4 µg/mL (≈ 2.61 to 5.22 µM) | > 64 µg/mL | CN(C)c1cc(NC(=O)CN(C(=O)OCOC(=O)c2cccn2C)C(C)(C)C)c(O)c2c1C[C@H]1C[C@H]3[C@H](N(C)C)C(O)=C(C(N)=O)C(=O)[C@@]3(O)C(O)=C1C2=O [Example 70]
1 to 2 µg/mL (≈ 1.27 to 2.53 µM) | 0.5 to 2 µg/mL (≈ 0.633 to 2.53 µM) | 2 to 4 µg/mL (≈ 2.53 to 5.06 µM) | > 64 µg/mL | CN(C)c1cc(NC(=O)CN(C(=O)OCOC(=O)/C=C/c2ccccc2)C(C)(C)C)c(O)c2c1C[C@H]1C[C@H]3[C@H](N(C)C)C(O)=C(C(N)=O)C(=O)[C@@]3(O)C(O)=C1C2=O [Example 99, ({[(2-{[(5aR,6aS,7S,10aS)-9-(aminocarbonyl)-4,7-bis(dimethylamino)-1,8,10a,11-tetrahydroxy-10,12-dioxo-5,5a,6,6a,7,10,10a,12-octahydrotetracen-2-yl]amino}-2-oxoethyl)(tert-butyl)amino]carbonyl}oxy)methyl (2E)-3-phenylprop-2-enoate]
2 µg/mL (≈ 2.44 µM) | 1 to 2 µg/mL (≈ 1.22 to 2.44 µM) |  | > 64 µg/mL | CC(=O)Nc1ccc(C(=O)OCOC(=O)N(CC(=O)Nc2cc(N(C)C)c3c(c2O)C(=O)C2=C(O)[C@]4(O)C(=O)C(C(N)=O)=C(O)[C@@H](N(C)C)[C@@H]4C[C@@H]2C3)C(C)(C)C)cc1 [Example 105]
